Results taken from ChEMBL document CHEMBL1201862, “PubChem BioAssay data set” (2004).
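Following 48 hours of exposure in 96-well plates, responses at five concentrations were used to interpolate endpoints linearly. At the GI50, growth is halved.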 Calls of active or inactive are those of the source. No stated cut-off is given here; in the data, active = GI50 up to about 1.1 µM and inactive = higher.

Experiments:
Assay in all cases: growth of human tumour cells (NCI), 48 h
[1] = tested on: OVCAR-3
[2] = tested on: RXF 393
[3] = tested on: M14
[4] = tested on: HCT-116
[5] = tested on: A549
[6] = tested on: SNB-75
[7] = tested on: NCI-H522
[8] = tested on: HOP-92
[9] = tested on: SW-620
[10] = tested on: DMS-114
[11] = tested on: NCI-H460
[12] = tested on: SN12C
[13] = tested on: Malme-3M
[14] = tested on: 786-0
[15] = tested on: K562
[16] = tested on: U-251
[17] = tested on: MDA-N
[18] = tested on: BT-549
[19] = tested on: PC-3
[20] = tested on: MDA-MB-435

Compound: C/C=C/C#CC#C/C=C/C=C/C(O)CCO (configuration not stated)
- GI50 [1]: > 23.1 µM (inactive)
- GI50 [2]: > 23.1 µM (inactive)
- GI50 [3]: > 23.1 µM (inactive)
- GI50 [4]: > 23.1 µM (inactive)
- GI50 [5]: > 23.1 µM (inactive)
- GI50 [6]: 17.7 µM (inactive)
- GI50 [7]: > 23.1 µM (inactive)
- GI50 [8]: > 23.1 µM (inactive)
- GI50 [9]: > 23.1 µM (inactive)
- GI50 [10]: > 23.1 µM (inactive)
- GI50 [11]: > 23.1 µM (inactive)
- GI50 [12]: > 23.1 µM (inactive)
- GI50 [13]: > 23.1 µM (inactive)
- GI50 [14]: > 23.1 µM (inactive)
- GI50 [15]: > 23.1 µM (inactive)
- GI50 [16]: > 23.1 µM (inactive)

Compound: c1ccc2cc(C3NCCc4nc[nH]c43)ccc2c1 (configuration not stated)
- GI50 [1]: 61.2 µM (inactive)
- GI50 [2]: 61.1 µM (inactive)
- GI50 [3]: 39.9 µM (inactive)
- GI50 [4]: 67.3 µM (inactive)
- GI50 [5]: > 100 µM (inactive)
- GI50 [6]: 46.2 µM (inactive)
- GI50 [7]: 34 µM (inactive)
- GI50 [8]: 49.3 µM (inactive)
- GI50 [9]: 61.8 µM (inactive)
- GI50 [10]: 35.6 µM (inactive)
- GI50 [11]: 52 µM (inactive)
- GI50 [12]: 97.5 µM (inactive)
- GI50 [14]: 41.3 µM (inactive)
- GI50 [15]: 29.6 µM (inactive)
- GI50 [16]: 90.8 µM (inactive)

Compound: CCCCOC(=O)C1C(c2ccc(Cl)cc2)NC(c2ccc(Cl)cc2)C(C(=O)OCCCC)S1(=O)=O (configuration not stated)
- GI50 [1]: > 100 µM (inactive)
- GI50 [2]: > 100 µM (inactive)
- GI50 [3]: > 100 µM (inactive)
- GI50 [5]: > 100 µM (inactive)
- GI50 [6]: > 100 µM (inactive)
- GI50 [7]: > 100 µM (inactive)
- GI50 [8]: > 100 µM (inactive)
- GI50 [9]: > 100 µM (inactive)
- GI50 [10]: > 100 µM (inactive)
- GI50 [11]: > 100 µM (inactive)
- GI50 [12]: > 100 µM (inactive)
- GI50 [13]: > 100 µM (inactive)
- GI50 [14]: > 100 µM (inactive)
- GI50 [15]: > 100 µM (inactive)
- GI50 [16]: > 100 µM (inactive)

Compound: COc1ccc(N2C(=O)C3CC(c4ccc(C)cc4)c4c([nH]c5ccccc45)C3C2=O)cc1 (configuration not stated)
- GI50 [1]: 5.65 µM (inactive)
- GI50 [3]: 33.8 µM (inactive)
- GI50 [4]: 4.43 µM (inactive)
- GI50 [5]: 12.2 µM (inactive)
- GI50 [6]: 18.4 µM (inactive)
- GI50 [7]: 19.5 µM (inactive)
- GI50 [8]: 24 µM (inactive)
- GI50 [9]: 6.22 µM (inactive)
- GI50 [10]: > 49.7 µM (inactive)
- GI50 [11]: 4.9 µM (inactive)
- GI50 [12]: 8.87 µM (inactive)
- GI50 [13]: 15.5 µM (inactive)
- GI50 [14]: 12.2 µM (inactive)
- GI50 [15]: > 63 µM (inactive)
- GI50 [16]: 10 µM (inactive)

Compound: NCC(NC(=O)OCc1ccccc1)C(=O)O (configuration not stated)
- GI50 [1]: > 50 µM (inactive)
- GI50 [3]: > 50 µM (inactive)
- GI50 [4]: > 50 µM (inactive)
- GI50 [5]: > 50 µM (inactive)
- GI50 [6]: > 50 µM (inactive)
- GI50 [7]: > 50 µM (inactive)
- GI50 [8]: > 50 µM (inactive)
- GI50 [9]: > 50 µM (inactive)
- GI50 [10]: > 50 µM (inactive)
- GI50 [11]: > 50 µM (inactive)
- GI50 [12]: > 50 µM (inactive)
- GI50 [13]: > 50 µM (inactive)
- GI50 [14]: > 50 µM (inactive)
- GI50 [15]: > 50 µM (inactive)
- GI50 [16]: > 50 µM (inactive)

Compound: NNC(=O)N/N=C1\C(=O)N(c2ccc(Cl)c(Cl)c2)C(=O)C(=O)C1c1nc2ccccc2s1 (configuration not stated)
- GI50 [1]: > 100 µM (inactive)
- GI50 [2]: 38.5 µM (inactive)
- GI50 [3]: > 100 µM (inactive)
- GI50 [4]: > 100 µM (inactive)
- GI50 [5]: > 100 µM (inactive)
- GI50 [6]: > 100 µM (inactive)
- GI50 [7]: > 100 µM (inactive)
- GI50 [8]: > 100 µM (inactive)
- GI50 [9]: > 100 µM (inactive)
- GI50 [10]: > 100 µM (inactive)
- GI50 [11]: > 100 µM (inactive)
- GI50 [12]: > 100 µM (inactive)
- GI50 [13]: > 100 µM (inactive)
- GI50 [14]: > 100 µM (inactive)
- GI50 [16]: > 100 µM (inactive)

Compound: COc1nc2c(c(O)c(C)c(=O)n2OC2OC(COC(C)=O)C(OC(C)=O)C(OC(C)=O)C2OC(C)=O)c(=O)n1C (configuration not stated)
- GI50 [2]: > 100 µM (inactive)
- GI50 [3]: > 100 µM (inactive)
- GI50 [4]: > 100 µM (inactive)
- GI50 [5]: > 100 µM (inactive)
- GI50 [6]: > 100 µM (inactive)
- GI50 [7]: 44.8 µM (inactive)
- GI50 [9]: > 100 µM (inactive)
- GI50 [10]: > 100 µM (inactive)
- GI50 [11]: > 100 µM (inactive)
- GI50 [12]: > 100 µM (inactive)
- GI50 [14]: > 100 µM (inactive)
- GI50 [15]: > 100 µM (inactive)
- GI50 [16]: > 100 µM (inactive)

Compound: Cc1ccc(-c2cc(=O)c3cc(C)c(C)c(C(=O)O)c3o2)cc1
- GI50 [1]: > 100 µM (inactive)
- GI50 [3]: > 100 µM (inactive)
- GI50 [4]: > 100 µM (inactive)
- GI50 [5]: > 100 µM (inactive)
- GI50 [6]: 47.9 µM (inactive)
- GI50 [7]: 24.3 µM (inactive)
- GI50 [8]: > 100 µM (inactive)
- GI50 [9]: > 100 µM (inactive)
- GI50 [10]: > 100 µM (inactive)
- GI50 [11]: > 100 µM (inactive)
- GI50 [12]: > 100 µM (inactive)
- GI50 [13]: > 100 µM (inactive)
- GI50 [14]: > 100 µM (inactive)
- GI50 [15]: > 10 µM (inactive)
- GI50 [16]: > 100 µM (inactive)

Compound: C=CCNC(=S)NNC(=O)c1c(C)nc2sccn12
- GI50 [1]: > 100 µM (inactive)
- GI50 [2]: > 100 µM (inactive)
- GI50 [4]: > 100 µM (inactive)
- GI50 [5]: > 100 µM (inactive)
- GI50 [7]: > 100 µM (inactive)
- GI50 [8]: 70 µM (inactive)
- GI50 [9]: > 100 µM (inactive)
- GI50 [10]: > 100 µM (inactive)
- GI50 [11]: > 100 µM (inactive)
- GI50 [12]: > 100 µM (inactive)
- GI50 [13]: > 100 µM (inactive)
- GI50 [14]: > 100 µM (inactive)
- GI50 [15]: > 100 µM (inactive)
- GI50 [16]: > 100 µM (inactive)

Compound: Cc1ccc(/C=C2\CCCC(C(NO)c3ccc(C)cc3)C2=NO)cc1 (configuration not stated)
- GI50 [1]: 16.7 µM (inactive)
- GI50 [2]: 20.6 µM (inactive)
- GI50 [3]: 26.4 µM (inactive)
- GI50 [4]: 45.6 µM (inactive)
- GI50 [5]: 36.1 µM (inactive)
- GI50 [6]: 28 µM (inactive)
- GI50 [7]: 28.5 µM (inactive)
- GI50 [9]: 42.6 µM (inactive)
- GI50 [10]: 30.3 µM (inactive)
- GI50 [11]: 24.7 µM (inactive)
- GI50 [12]: 20.7 µM (inactive)
- GI50 [13]: 52.2 µM (inactive)
- GI50 [14]: 58.3 µM (inactive)
- GI50 [15]: 33.8 µM (inactive)
- GI50 [16]: 55.2 µM (inactive)

Compound: CCN1C[C@]2(C)CC[C@H](OC)C34C1C([C@H](OC(C)=O)[C@@H]32)[C@@]1(OC)C[C@H](OC)[C@H]2C[C@@H]4[C@@H]1[C@H]2O
- GI50 [2]: > 100 µM (inactive)
- GI50 [3]: > 100 µM (inactive)
- GI50 [4]: > 100 µM (inactive)
- GI50 [5]: > 100 µM (inactive)
- GI50 [6]: > 100 µM (inactive)
- GI50 [7]: > 100 µM (inactive)
- GI50 [8]: > 100 µM (inactive)
- GI50 [9]: 54.2 µM (inactive)
- GI50 [10]: 82.4 µM (inactive)
- GI50 [11]: > 100 µM (inactive)
- GI50 [12]: > 100 µM (inactive)
- GI50 [13]: > 100 µM (inactive)
- GI50 [14]: > 100 µM (inactive)
- GI50 [15]: 92.5 µM (inactive)
- GI50 [16]: > 100 µM (inactive)

Compound: COc1cc2oc(-c3ccccc3)cc(=O)c2c(O)c1C
- GI50 [1]: > 100 µM (inactive)
- GI50 [3]: > 100 µM (inactive)
- GI50 [4]: > 100 µM (inactive)
- GI50 [5]: > 100 µM (inactive)
- GI50 [6]: > 100 µM (inactive)
- GI50 [7]: > 100 µM (inactive)
- GI50 [8]: 27.4 µM (inactive)
- GI50 [9]: > 100 µM (inactive)
- GI50 [10]: > 100 µM (inactive)
- GI50 [11]: > 100 µM (inactive)
- GI50 [12]: > 100 µM (inactive)
- GI50 [13]: > 100 µM (inactive)
- GI50 [14]: > 100 µM (inactive)
- GI50 [15]: > 100 µM (inactive)
- GI50 [16]: > 100 µM (inactive)

Compound: O=C1c2ccccc2-n2c1nc1ccccc1c2=O [TRYPTANTHRIN]
- GI50 [1]: 4.54 µM (inactive)
- GI50 [17]: 18.2 µM (inactive)
- GI50 [2]: 28.1 µM (inactive)
- GI50 [3]: 5.65 µM (inactive)
- GI50 [4]: 5.86 µM (inactive)
- GI50 [5]: 2.59 µM (inactive)
- GI50 [18]: 14.6 µM (inactive)
- GI50 [6]: 30.8 µM (inactive)
- GI50 [7]: 15.3 µM (inactive)
- GI50 [19]: 649 nM (active)
- GI50 [8]: 44.5 µM (inactive)
- GI50 [20]: 1.85 µM (inactive)
- GI50 [9]: 20.8 µM (inactive)
- GI50 [11]: 1.44 µM (inactive)
- GI50 [12]: 12.6 µM (inactive)
- GI50 [13]: 13.4 µM (inactive)
- GI50 [14]: 28.2 µM (inactive)
- GI50 [15]: 3.18 µM (inactive)
- GI50 [16]: 3.34 µM (inactive)
